Results on five molecules are retold here after patent US4335250A, “Compound with immunopotentiating activity and production and uses thereof” (Banyu Pharmaceutical Co., Ltd., priority 1978, dated 1982).

The test system of assay [1] is cellular immunity (cell-mediated immunity), DTH response to sheep red blood cells. The assay is described as follows: Delayed-Type Hypersensitivity (D.T.H.) technique, ICR mice immunized with sheep red blood cells (footpad swelling). Particulars: for Increase in thickness of footpad: 24 h after eliciting injection, control 8.3 ± 1.0; for Swelling degree: ICR mice, vs control. Format: in vivo, ICR mouse (female, 6 weeks). As to the method:
In this Example, the effect of BF-127 substance on cellular immunity (cell-mediated immunity) was tested according to a known Delayed-Type Hypersensitivity (D.T.H.) technique (see P. H. Lagrange, G. B. Mackaness and T. E. Mille, "J. Exp. Med", 139, 1529-1539 (1974) using mice immunized with sheep red blood cells as antigen.
(§1) Thus, 10^8 sheep red blood cells (SRBC) suspended in 0.05 ml of physiological saline were subcutaneously injected at the time of immunization to the right hind footpad of each ICR mouse under test (female, 6 weeks aged) to establish delayed-type hypersensitivity. Simultaneously with the immunization, a varying dose of BF-127 substance was intraperitoneally injected into each test mouse. Four days later, 10^8 sheep red blood cells were subcutantaneously injected into the left hind footpad of each test mouse for elicitation of the D.T.H. response. 24 hours after eliciting injection, the thickness of the left hind footpad was measured with a vernier caliper to evaluate the degree of the resulting edema in the footpad. The degree of the swelling serves to estimate the cellular immunity involved. In the Table, the swelling degree is expressed in terms of the values calculated by the equation: [formula]
By way of reference, the test results conducted by the same procedure as above except that BF-127 substance was orally administered are indicated in Table 2 below.

Assay [2] deals with IMC Carcinoma. The assay is described as follows: Inhibitory effect on IMC Carcinoma, 1×10^6 cells inoculated. Format: in vivo, CDF1 mouse (female, 14 weeks). To be noted: for Average weight of tumors: untreated 5635 mg; for Inhibition: tumor growth. An excerpt: This Example illustrates the inhibitory effect of BF-127 substance on IMC Carcinoma. […] Pathological studies have shown that the above tumor is a sort of epithelial undifferentiated tumors.
5×10^6 IMC tumor cells were transplanted hypodermically to the inguinal section of each CDF1 mouse under test (female, 14 weeks old, 5 mice per group). 8 days after transplantation, a varying dose of BF-127 substance was intraperitoneally injected into each test mouse once a day for five successive days. 30 days after transplantation, the tumor formed were removed and weighed to evaluate the inhibitory effect of BF-127 substance on tumor growth in terms of average weight of the tumors formed in 5 mice.
Further tests were conducted following the procedure as above wherein 1×10^6 IMC tumor cells were inoculated and BF-127 substance was intraperitoneally injected (I.P.) or orally administered (P.O.).

Assay [3] relates to cellular immunity (cell-mediated immunity), DTH response to sheep red blood cells. The assay is described as follows: Delayed-type hypersensitivity (footpad swelling), CDF1 mice. Particulars: other strains of mice of different ages. Format: in vivo, CDF1 mouse (male, 9 weeks).
A further assay relates to Gardner Lymphoma. Kind of assay: Inhibitory effect on growth of transplanted Gardner Lymphoma. It is filed as in vivo, C3H/He mouse (female, 10 weeks). Particulars: for Average weight of tumors / Inhibition: 5 days, 30 days after transplantation; for Average weight of tumors: untreated 1310 mg; for Inhibition: tumor growth. From the text: 10^5 Gardner Lymphoma cells were transplanted subcutaneously to the inguinal of each C3H/He mouse under test (female, 10 weeks old, 5 mice per group).

Assay [4] concerns IMC Carcinoma. Kind of assay: Inhibitory effect on IMC Carcinoma, 5×10^6 cells transplanted. Format: in vivo, CDF1 mouse (female, 14 weeks). To be noted: 5 days, 30 days; for Average weight of tumors: untreated 12380 mg; for Inhibition: tumor growth. An excerpt:
5×10^6 IMC tumor cells were transplanted hypodermically to the inguinal section of each CDF1 mouse under test (female, 14 weeks old, 5 mice per group).

Assay [5] relates to cellular immunity (cell-mediated immunity), DTH response to sheep red blood cells. The assay is described as follows: Delayed-type hypersensitivity (footpad swelling), CDF1 mice. Format: in vivo, CDF1 mouse (male, 9 weeks). On the procedure: as §1
The same test procedure as described in Example 7 was repeated but using CDF1 (DBA/2xBALB/CF1) male mice (9 weeks old), in which varying doses of BF-127 substance were intraperitoneally injected or orally administered into each test mouse. The tests results are shown in Table 3 below where the swelling degree has the same significance as in Example 7.

The subject of the next assay is alkaline phosphatase. To be noted: cited from earlier work.
Assay [6] concerns delayed-type hypersensitivity. To be noted: cited from earlier work.
Another assay has as its system antibody-forming cells. Particulars: cited from earlier work.
The next assay concerns immune response. To be noted: Japanese Patent Pre-publication No. 44632/79; U.S. Pat. No. 4,238,507; cited from earlier work.
The mark [7] stands for this setting: 20 μg/mouse (Control) i.p. once a day.
[8] abbreviates: 100 μg/mouse (Control) i.p. once a day.

Usually Inhibition stands for the change of the read-out against control, counted positive when it falls. A low value points to a response near the control. As to `O=C(O)c1ccc(CO)c(O)c1` [BF-127, 3-hydroxy-4-(hydroxymethyl) benzoic acid], the “Increase in thickness of footpad” value in [1] (0.1 μg/mouse i.p.) is reported as 14.3 ± 1.1 × 0.1 mm; in [1] (1 μg/mouse i.p.) it was 19.4 ± 1.8 × 0.1 mm; in assay [1] (10 μg/mouse i.p.), 15.5 ± 1.3 × 0.1 mm; in assay [1] (100 μg/mouse i.p.), 15.7 ± 0.3 × 0.1 mm; in [1] (1 mg/mouse i.p.) it was 13.1 ± 0.4 × 0.1 mm. The Swelling degree in assay [1] (0.1 μg/mouse i.p.) is reported as 172%; in [1] (1 μg/mouse i.p.) it was 234%; in assay [1] (10 μg/mouse i.p.) it was 187%; in [1] (10 μg/mouse oral) it was 146%; in [1] (100 μg/mouse i.p.), 189%; in assay [1] (100 μg/mouse oral), 148%. Moreover, the Swelling degree in assay [1] (1 mg/mouse i.p.) was 158%; in assay [1] (1 mg/mouse oral), 133%; in [5] (0.1 μg/mouse, I.P. injection), 119%; in assay [5] (0.1 μg/mouse, oral administration), 103%; in [5] (1 μg/mouse, I.P. injection), 129%; in assay [5] (1 μg/mouse, oral administration), 115%. The Swelling degree turned out to be 131% in [5] (10 μg/mouse, I.P. injection); 122% in [5] (10 μg/mouse, oral administration); 133% in assay [5] (100 μg/mouse, I.P. injection); 142% in assay [5] (100 μg/mouse, oral administration); 125% in [5] (1 mg/mouse, I.P. injection); 138% in assay [5] (1 mg/mouse, oral administration). The “potentiating effect on establishment of cellular immunity” value in assay [1] (i.p., 1 mg to 0.1 μg/mouse) was “intensive potentiating effect”. Moreover, the “potentiating effect on DTH response” value in assay [1] (intravenous injection), in assay [1] (oral administration) and in assay [1] (subcutaneous injection) was “potentiating effect has also been observed” in each case. In addition, the “potentiation of the DTH response” value in [1] (oral, doses of 1 mg to 10 μg/mouse) is 30-50%. Further, the “Average weight of tumors” value in the assay on IMC Carcinoma [2] (1 μg/mouse (I.P.)) is 2206 mg; with IMC Carcinoma [2] (1 μg/mouse (P.O.)), 2538 mg; with IMC Carcinoma [2] (10 μg/mouse (I.P.)) it was 1312 mg; in the assay on IMC Carcinoma [2] (10 μg/mouse (P.O.)), 2638 mg; in the assay on Gardner Lymphoma (0.1 μg/mouse i.p. once a day), 950 mg; with Gardner Lymphoma (1 μg/mouse i.p. once a day) it was 930 mg. Also, the “Average weight of tumors” value in the assay with Gardner Lymphoma (10 μg/mouse i.p. once a day) is given as 570 mg; with IMC Carcinoma [4] (1 μg/mouse i.p. once a day) it was 5740 mg; in the assay on IMC Carcinoma [4] (10 μg/mouse i.p. once a day), 6190 mg; with IMC Carcinoma [4] (100 μg/mouse i.p. once a day), 7970 mg. In addition, the Inhibition in the assay on IMC Carcinoma [2] (1 μg/mouse (I.P.)) is 60.8%; in the assay on IMC Carcinoma [2] (1 μg/mouse (P.O.)), 55.0%; in the assay on IMC Carcinoma [2] (10 μg/mouse (I.P.)) it was 76.8%; in the assay with IMC Carcinoma [2] (10 μg/mouse (P.O.)) it was 53.0%; in the assay with Gardner Lymphoma (0.1 μg/mouse i.p. once a day) it was 27.5%; with Gardner Lymphoma (1 μg/mouse i.p. once a day), 29.0%. For the same molecule, the Inhibition in the assay on Gardner Lymphoma (10 μg/mouse i.p. once a day) stood at 56.5%; in the assay with IMC Carcinoma [4] (1 μg/mouse i.p. once a day), 53.6%; with IMC Carcinoma [4] (10 μg/mouse i.p. once a day), 50.0%; in the assay on IMC Carcinoma [4] (100 μg/mouse i.p. once a day) it was 35.6%. Besides, the immunopotentiating effect result in [3] was “also observed”. In the assay on Gardner Lymphoma (BF-127 at 10 μg/mouse), the “inhibition of tumor growth compared to Bleomycin” value is given as “superior or comparable to Bleomycin”.
Take `NC(C(=O)O)c1ccc(C=O)c(O)c1` (stereo not drawn) [Forphenicine]: the “inhibition of alkaline phosphatase” value in the assay with alkaline phosphatase is listed as “strong inhibitor”. Further, in assay [6], the delayed-type hypersensitivity entry was “enhances delayed-type hypersensitivity”. Moreover, the “number of antibody-forming cells” value with antibody-forming cells is given as “increases the number of antibody-forming”.
In the case of `CO[C@@]12[C@H](COC(N)=O)C3=C(C(=O)C(C)=C(N)C3=O)N1C[C@@H]1N[C@@H]12` [MMC, Mytomycin, reference compound], in the assay on IMC Carcinoma [4] (setting [7]), the “Average weight of tumors” value was determined as 5510 mg and the Inhibition was found to be 55.5%.
Take `NC(C(=O)O)c1ccc(CO)c(O)c1` (stereo not drawn) [forphenicinol]: in the assay with immune response, the immunopotentiating activity result is reported as “found to have an immunopotentiating activity”.
As for Bleomycin [reference compound], in the assay with Gardner Lymphoma (setting [8]), the “Average weight of tumors” value is recorded as 760 mg and the Inhibition is reported as 42.0%. For the same molecule, in the assay on IMC Carcinoma [4] (100 μg/mouse i.p. once a day), the “Average weight of tumors” value is listed as 5770 mg and the Inhibition turned out to be 53.4%.
